# Source: publication PMC9979163, “Discovery and functional characterization of N-(thiazol-2-yl)-benzamide analogs as the first class of selective antagonists of the Zinc-Activated Channel (ZAC)” (Biochemical pharmacology, 2021)
# Assays:
# ZAC [1] = target: T1, ZAC (Homo sapiens, UniProt Q401N2); experiment: TEVC recordings, Zn2+-evoked currents at ZAC expressed in Xenopus oocytes; format: cell-based; conditions: for Antagonist activity at ZAC in SAR study (in words): tested at three concentrations (0.3-3-30 μM or 1-10-100 μM); for IC50: steady-state current, read-out: pIC50 ± S.E.M. (converted)
# T1 sequence (Q401N2 26-412): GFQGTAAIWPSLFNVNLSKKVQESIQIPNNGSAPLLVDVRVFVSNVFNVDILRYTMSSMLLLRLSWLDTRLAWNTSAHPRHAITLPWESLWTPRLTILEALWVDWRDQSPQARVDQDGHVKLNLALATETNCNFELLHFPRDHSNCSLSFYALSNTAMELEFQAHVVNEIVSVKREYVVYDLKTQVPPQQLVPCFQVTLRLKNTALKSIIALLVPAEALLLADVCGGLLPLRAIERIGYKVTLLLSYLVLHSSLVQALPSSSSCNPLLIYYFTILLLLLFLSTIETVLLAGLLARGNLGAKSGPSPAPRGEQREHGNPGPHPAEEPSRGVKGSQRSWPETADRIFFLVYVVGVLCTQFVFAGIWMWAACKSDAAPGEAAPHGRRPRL
# Method: (§1) The cDNAs for the various WT and chimeric CLR subunits were linearized and subsequently transcribed and capped mMessage mMachine T7 RNA transcription kit (Ambion, Waltham, MA). Different amounts of cRNA mixtures were injected for ZAC (9.2–36.8 nL in a concentration of 0.05 μg/μL), […] nAChR (9.2–36.8 nL in a concentration of 0.1 μg/μL of each subunit in a ratio of 1:1), hα1 GlyR (9.2–36.8 nL in a concentration of 0.05 μg/μL), hα1β2γ2s GABAAR (9.2–36.8 nL in a concentration of 0.05 μg/μL of each subunit in a ratio of 1:1:3), m5-HT3AR (9.2–36.8 nL in a concentration of 0.05 μg/μL), m5-HT3A/ZAC (9.2–36.8 nL in a concentration of 0.207 μg/μL), and ZAC/hai-Gly (9.2–36.8 nL in a concentration of 0.206 μg/μL). Oocytes were incubated in a sterile modified Barth’s solution [88 mM NaCl, 1 mM KCl, 15 mM HEPES (pH 7.5), 2.4 mM NaHCO3, 0.41 mM CaCl2, 0.82 mM MgSO4, 0.3 mM Ca(NO3)2, 100 U/ml penicillin and 100 μg/ml strep-tomycin] at 18 °C for 2 days after injection.
# (§2) On the day of experiment, all compound dilutions were prepared in a saline solution [115 mM NaCl, 2.5 mM KCl, 10 mM MOPS (pH 7.5), 1.8 mM CaCl2, 0.1 mM MgCl2] and pH adjusted to 7.5 (if needed). Oocytes were placed in a recording chamber continuously perfused with this saline solution, and the compounds were applied in the perfusate. Both voltage and current electrodes were agar-plugged with 3 M KCl with a resistance of 0.2–2.0 MΩ. Oocytes were voltage-clamped at −50 mV (unless otherwise stated) by a Gene Clamp 500B amplifier (Axon Instruments, Union City, CA), while current signals were digitized by a Digidata 1320. Currents were recorded using pCLAMP 10 (Molecular Devices, Sunnyvale, CA). The recordings were performed at room temperature.
# In all recordings, the compounds or compound combinations were applied in the bath until the peak current decayed to a steady state (up to 30 sec at the most). […] The functional properties of the modulators at the CLRs were determined by pre-application of the modulator to the perfusate 30 sec and followed by co-application of the modulator and the agonist to the perfusate. In all recordings, washes of 1–5 min were executed between the applications to prevent receptor desensitization, the duration of these washes depending on the kinetics of the respective receptors and the “stickyness” of the respective compounds. […] For the selectivity and mode-of-action studies, the agonist concentrations used for different CLRs or chimeric CLRs were in the EC20–EC40 range (verified on the day of experiment), as this enabled us to investigate both for putative positive and negative receptor modulation exerted by TTFB (hα3β4 nAChR, 3 μM (S)-nicotine; m5-HT3AR, 2 μM 5-HT; hα1 GlyR, 100 μM glycine; hα1β2γ2S GABAAR, 30 μM GABA; m5-HT3A/ZAC, 0.3 μM 5-HT; ZAC/hɑ1-Gly, 2 μM Zn^2+).
# Data analysis of the results from the TEVC recordings were performed using Clampfit software version 10.5 (Molecular Devices, Crawley, UK) and GraphPad Prism version 7.0c (GraphPad Software, Inc. La Jolla, CA). Data for the test compounds were normalized to either the maximal agonist-evoked current or to an EC20–EC50-mediated response elicited by the agonist on each oocyte (specified in each case). Unless otherwise stated, data for agonist-induced responses in the presence of the antagonists were extracted from the plateau (or steady-state) of the agonist-evoked current. Concentration-response and concentration-inhibition curves were fitted in GraphPad Prism by nonlinear regression using the equation for sigmoidal dose-response with variable slope. I-V relationships were analyzed by fitting the curves with a third order polynomial model. Each data point represents the mean ± S.E.M. value of recordings performed on at least five oocytes from at least two different batches.
# ZAC/hα1-Gly = experiment: TEVC, chimeric ZAC/hα1-Gly receptor in oocytes; format: cell-based, human; conditions: 30 μM, EC20–EC40 Zn2+
# Method: (§3) The cDNAs for the various WT and chimeric CLR subunits were linearized and subsequently transcribed and capped mMessage mMachine T7 RNA transcription kit (Ambion, Waltham, MA). […]
# (§4) On the day of experiment, all compound dilutions were prepared in a saline solution [115 mM NaCl, 2.5 mM KCl, 10 mM MOPS (pH 7.5), 1.8 mM CaCl2, 0.1 mM MgCl2] and pH adjusted to 7.5 (if needed). […] Currents were recorded using pCLAMP 10 (Molecular Devices, Sunnyvale, CA). […]
# (§5) In all recordings, the compounds or compound combinations were applied in the bath until the peak current decayed to a steady state (up to 30 sec at the most). […] The functional properties of the modulators at the CLRs were determined by pre-application of the modulator to the perfusate 30 sec and followed by co-application of the modulator and the agonist to the perfusate. […]
# (§6) Data analysis of the results from the TEVC recordings were performed using Clampfit software version 10.5 (Molecular Devices, Crawley, UK) and GraphPad Prism version 7.0c (GraphPad Software, Inc. La Jolla, CA). […] I-V relationships were analyzed by fitting the curves with a third order polynomial model. […]
# ZAC [2] = target: T1, ZAC; experiment: TEVC recordings, spontaneous ZAC activity in Xenopus oocytes; format: cell-based; conditions: for IC50: block of spontaneous ZAC activity (leak current), TEVC
# Method: as §1, §2
# In all recordings, the compounds or compound combinations were applied in the bath until the peak current decayed to a steady state (up to 30 sec at the most). […] The functional properties of the modulators at the CLRs were determined by pre-application of the modulator to the perfusate 30 sec and followed by co-application of the modulator and the agonist to the perfusate. In all recordings, washes of 1–5 min were executed between the applications to prevent receptor desensitization, the duration of these washes depending on the kinetics of the respective receptors and the “stickyness” of the respective compounds. […]
# as §6
# m5-HT3AR = target: T2, m5-HT3AR (Mus musculus, UniProt P23979); experiment: TEVC selectivity, m5-HT3AR in oocytes; format: cell-based; conditions: 30 μM, 30 s preapplication, 2 μM 5-HT (EC20–EC40)
# T2 sequence (P23979 24-489): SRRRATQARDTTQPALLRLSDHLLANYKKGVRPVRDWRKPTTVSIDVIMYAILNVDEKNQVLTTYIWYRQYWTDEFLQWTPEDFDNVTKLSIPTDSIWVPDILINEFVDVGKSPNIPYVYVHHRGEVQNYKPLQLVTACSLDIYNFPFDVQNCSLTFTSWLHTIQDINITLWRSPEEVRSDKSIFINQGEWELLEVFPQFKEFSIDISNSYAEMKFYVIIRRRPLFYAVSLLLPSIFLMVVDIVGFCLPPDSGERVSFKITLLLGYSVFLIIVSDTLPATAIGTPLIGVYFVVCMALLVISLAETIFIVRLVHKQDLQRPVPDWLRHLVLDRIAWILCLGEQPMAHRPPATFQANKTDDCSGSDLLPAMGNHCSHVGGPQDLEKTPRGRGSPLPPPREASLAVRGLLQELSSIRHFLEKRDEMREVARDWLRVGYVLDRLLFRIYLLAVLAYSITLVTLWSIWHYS
# Method: as §3, §4, §5, §6
"Inhibition of ZAC at 10 μM (in words) (ZAC [1]; 10 μM compound, 1 mM Zn2+ as agonist)",Antagonist activity at ZAC in SAR study (in words) (ZAC [1]; 1 mM Zn2+ as agonist),"Fitted inhibition range, Inhibition (%) (ZAC [1]; Zn2+ (1 mM) as agonist, TEVC)","Hill coefficient nH ± S.E.M. (ZAC [1]; Zn2+ (1 mM) as agonist, TEVC)","IC50 (ZAC [1]; Zn2+ (1 mM) as agonist, TEVC) [µM]","Extent of inhibition of Zn2+-induced responses (in words) (ZAC [1]; Zn2+ (1 mM), full concentration-inhibition curves)",Modulation of Zn2+-induced response (ZAC/hα1-Gly),"Equilibrium potential (ZAC [2]; TTFB (100 μM)-induced currents, holding potentials −60 mV to +60 mV) [mV]",IC50 (ZAC [2]; read-out: IC50) [µM],IC50 (ZAC [2]; read-out: pIC50 ± S.E.M. (converted)) [µM],"Agonist, antagonist or PAM activity (m5-HT3AR)",Mode of antagonism (ZAC [1]; Zn2+ concentration-response curves in absence and presence of various concentrations of the compound),Structure (SMILES)
almost complete inhibition,roughly equipotent with 2b,91 ± 3,−1.5 ± 0.08,3.02,completely,negligible effect,−11.5,4.7,4.79,did not display significant activity,–,"CC(C)(C)c1csc(NC(=O)c2cccc(F)c2)n1 [5a, N-(4-(tert-butyl)thiazol-2-yl)-3-fluorobenzamide]"
–,weaker antagonists,–,−1.3 ± 0.13,4.07,–,–,–,7.4,–,–,largely non-competitive,"COC(=O)c1sc(NC(=O)c2cc(Br)ccc2Cl)nc1C [compound 1, 2-(5-bromo-2-chlorobenzamido)-4-methylthiazole-5-methyl ester]"
